Measured values as given in patent US20030099693A1, “Wafer” (priority 2001, published 2003).

Columns and labels:
Assay type in all cases: biochemical
Conditions in all cases: Adjusted for Plasma Protein Binding
MMP-9 = MMP-9 (Homo sapiens, UniProt P14780); test: Concentration for 50% enzyme inhibition, MMP-9
Text: (§1) The solubility range to achieve efficacious doses without adverse effects for a range of protease inhibitors is shown in Table 1.

MMP-3 = MMP-3 (Homo sapiens, UniProt P08254); test: Concentration for 50% enzyme inhibition, MMP-3
MMP-3, sequence (P08254 100-477, species assumed): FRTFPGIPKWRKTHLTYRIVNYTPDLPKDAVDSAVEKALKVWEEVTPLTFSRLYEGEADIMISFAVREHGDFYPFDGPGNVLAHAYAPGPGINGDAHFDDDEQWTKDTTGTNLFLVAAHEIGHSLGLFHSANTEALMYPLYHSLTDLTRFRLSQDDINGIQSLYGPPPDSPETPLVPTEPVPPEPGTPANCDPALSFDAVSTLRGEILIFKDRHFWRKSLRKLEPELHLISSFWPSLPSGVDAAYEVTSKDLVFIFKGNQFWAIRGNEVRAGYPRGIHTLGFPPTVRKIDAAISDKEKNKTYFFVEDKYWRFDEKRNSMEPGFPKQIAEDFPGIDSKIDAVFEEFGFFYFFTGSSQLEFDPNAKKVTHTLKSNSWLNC

MMP-2 = target: T1, MMP-2 (Homo sapiens, UniProt P08253); test: Concentration for 50% enzyme inhibition, MMP-2
T1 sequence (P08253 110-660): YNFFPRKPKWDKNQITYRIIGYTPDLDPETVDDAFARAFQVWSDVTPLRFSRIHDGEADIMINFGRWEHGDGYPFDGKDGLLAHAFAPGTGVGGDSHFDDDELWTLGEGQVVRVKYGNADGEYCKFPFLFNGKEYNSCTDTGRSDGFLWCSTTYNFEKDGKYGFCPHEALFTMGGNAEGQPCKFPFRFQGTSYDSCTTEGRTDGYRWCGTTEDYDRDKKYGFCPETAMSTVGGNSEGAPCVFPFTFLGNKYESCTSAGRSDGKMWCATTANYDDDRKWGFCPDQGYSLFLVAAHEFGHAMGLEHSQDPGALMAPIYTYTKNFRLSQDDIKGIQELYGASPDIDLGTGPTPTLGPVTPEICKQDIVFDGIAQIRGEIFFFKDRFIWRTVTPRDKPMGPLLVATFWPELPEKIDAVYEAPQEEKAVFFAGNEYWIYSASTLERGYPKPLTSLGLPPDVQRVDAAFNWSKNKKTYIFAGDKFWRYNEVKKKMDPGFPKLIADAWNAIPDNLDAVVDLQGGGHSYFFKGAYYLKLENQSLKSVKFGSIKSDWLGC

MMP-14 = MMP-14 (Homo sapiens, UniProt P50281); test: Concentration for 50% enzyme inhibition, MMP-14
uPA = uPA (Homo sapiens, UniProt P00749); test: Concentration for 50% enzyme inhibition, uPA
TPA = TPA (Homo sapiens, UniProt P00750); test: Concentration for 50% enzyme inhibition, TPA
TPA, sequence (P00750 36-562, species assumed): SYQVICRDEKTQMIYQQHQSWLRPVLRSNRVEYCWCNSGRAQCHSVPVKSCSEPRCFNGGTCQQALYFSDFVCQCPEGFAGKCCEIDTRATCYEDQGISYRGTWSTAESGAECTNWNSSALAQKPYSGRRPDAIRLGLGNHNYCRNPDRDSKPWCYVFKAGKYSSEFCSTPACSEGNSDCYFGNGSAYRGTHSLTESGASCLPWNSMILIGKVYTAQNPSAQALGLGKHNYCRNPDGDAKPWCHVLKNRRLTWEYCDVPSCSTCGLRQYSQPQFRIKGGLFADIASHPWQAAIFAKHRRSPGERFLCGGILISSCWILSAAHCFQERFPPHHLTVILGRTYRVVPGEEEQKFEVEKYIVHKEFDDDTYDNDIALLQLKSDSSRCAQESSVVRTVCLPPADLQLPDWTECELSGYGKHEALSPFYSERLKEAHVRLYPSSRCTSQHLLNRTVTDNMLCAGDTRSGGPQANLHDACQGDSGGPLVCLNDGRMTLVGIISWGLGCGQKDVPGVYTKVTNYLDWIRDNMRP
Text: as §1

Plasmin = Plasmin (Homo sapiens, UniProt P00747); test: Concentration for 50% enzyme inhibition, Plasmin
Plasmin, sequence (P00747 581-810 limits assumed, species assumed): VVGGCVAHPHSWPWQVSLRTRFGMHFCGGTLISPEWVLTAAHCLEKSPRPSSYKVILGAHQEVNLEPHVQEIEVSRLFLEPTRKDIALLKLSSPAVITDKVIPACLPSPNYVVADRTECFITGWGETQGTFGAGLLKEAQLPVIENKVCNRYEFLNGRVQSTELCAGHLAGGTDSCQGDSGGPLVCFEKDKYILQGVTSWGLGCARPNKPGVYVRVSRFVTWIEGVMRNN
Plasmin, sequence (P00747 97-580 partner limits assumed, species assumed): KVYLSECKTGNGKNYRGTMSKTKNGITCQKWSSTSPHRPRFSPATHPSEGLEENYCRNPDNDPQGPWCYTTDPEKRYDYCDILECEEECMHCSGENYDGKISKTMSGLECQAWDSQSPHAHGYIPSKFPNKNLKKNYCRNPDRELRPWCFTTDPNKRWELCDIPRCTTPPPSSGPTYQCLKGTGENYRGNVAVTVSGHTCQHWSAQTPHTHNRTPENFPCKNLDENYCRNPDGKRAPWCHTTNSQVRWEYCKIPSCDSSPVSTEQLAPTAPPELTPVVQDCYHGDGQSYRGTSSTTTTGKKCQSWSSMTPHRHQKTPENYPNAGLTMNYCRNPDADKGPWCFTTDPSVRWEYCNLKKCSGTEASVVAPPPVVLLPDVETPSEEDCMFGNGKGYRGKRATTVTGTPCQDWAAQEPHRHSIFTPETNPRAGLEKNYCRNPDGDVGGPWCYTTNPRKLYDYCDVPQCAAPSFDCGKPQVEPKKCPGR
Text: as §1

MMP-9, sequence (P14780 94-707, species assumed): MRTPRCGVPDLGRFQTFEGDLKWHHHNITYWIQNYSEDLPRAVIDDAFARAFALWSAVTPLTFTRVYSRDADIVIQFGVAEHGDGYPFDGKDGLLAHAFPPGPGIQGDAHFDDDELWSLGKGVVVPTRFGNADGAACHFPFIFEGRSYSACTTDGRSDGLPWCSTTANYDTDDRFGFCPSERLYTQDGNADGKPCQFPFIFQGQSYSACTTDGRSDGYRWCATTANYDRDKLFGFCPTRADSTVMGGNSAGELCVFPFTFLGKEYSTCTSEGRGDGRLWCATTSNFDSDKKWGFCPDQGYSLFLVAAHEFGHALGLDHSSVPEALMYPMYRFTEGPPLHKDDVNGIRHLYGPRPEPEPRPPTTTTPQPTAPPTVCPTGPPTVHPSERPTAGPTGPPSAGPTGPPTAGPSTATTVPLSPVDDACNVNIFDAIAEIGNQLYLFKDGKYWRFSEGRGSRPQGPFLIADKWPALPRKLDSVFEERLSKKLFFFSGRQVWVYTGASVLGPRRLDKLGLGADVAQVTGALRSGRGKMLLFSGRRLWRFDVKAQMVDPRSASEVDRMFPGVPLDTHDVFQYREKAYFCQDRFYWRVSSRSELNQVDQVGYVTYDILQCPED

Question: For COC[C@@H](NC(=O)[C@@H](NC(=O)[C@H](CCCc1ccc(-c2ccccc2)c(C)c1)CC(=O)O)C(C)(C)C)c1ccccc1 [A, (3R)-3-({[(1S)-2,2-Dimethyl-1-({[(1S)-2-methoxy-1-phenylethyl]amino}carbonyl)-propyl]amino}carbonyl)-6-[(3-methyl-4-phenyl)phenyl]hexanoic acid], which IC50 (MMP-9) is on record?
Answer: 16.6 mM

Question: What about the IC50 (MMP-3) of the same compound?
Answer: 0.0175 mM

Question: And the IC50 (MMP-2)?
Answer: 27.2 mM

Question: And the IC50 (MMP-14)?
Answer: 35.6 mM

Question: NC(N)=Nc1ncc(Cl)c2ccc(-c3cccc(C(=O)O)c3)cc12 [inhibitor X, 3-(4-Chloro-1-guanidino-7-isoquinolyl)benzoic acid] was tested. Which IC50 (uPA) did it give?
Answer: 0.0117 mM

Question: What about the IC50 (TPA) of the same compound?
Answer: > 33.2 mM

Question: And the IC50 (Plasmin)?
Answer: 33.2 mM
